Consider 25 compounds from US20260001898A1, “Heteroaryl compounds as inhibitors of TYK2/JAK1, composition and application thereof” (Accro Bioscience (HK) Limited, priority 2022, published 2026).

One experiment has as its system JAK1/JAK2 pathway. Put plainly: Western blot p-STAT1/STAT1 in IFN-γ-stimulated HT-29 cells. It counts as cell-based. Conditions: IFN-γ 100 ng/mL. On the procedure: HT-29 cells were digested by trypsin and suspended in Dulbecco's Modified Eagle Medium (DMEM) and counted. The tested compounds were added into the 6 well plates (400 000/per well). After 2 hours, IFN-γ (100 ng/mL) was added to stimulate cells for 30 minutes. The cells were collected and lysed with protein lysate. The protein was quantitatively tested by BCA kit. Finally, p-STAT1/STAT1 and internal reference protein β-actin were detected by Western blot.

Experiment [1] relates to IFNα induced TYK2/JAK1 mediated STAT activation. Description: Luciferase assay in L929 ISRE cells stimulated with IFN-α. It counts as cell-based. The note with it: Mus musculus, IFN-α 100 ng/mL; for inhibition at 0.05 µM: 50 nM compound, read-out: Inhibitory activity % (50 nM); for inhibition at 0.2 µM: 200 nM compound, read-out: Inhibitory activity % (200 nM); for inhibition at 1 µM: 1000 nM compound, read-out: Inhibitory activity % (1000 nM). As to the method: • 1. L929 ISRE cells (5000 cells/well) were seeded on 96-well plates and incubated overnight at room temperature-; • 2. The cells were pretreated by adding different concentrations (10 nM, 50 nM, 100 nM, 200 nM or 1000 nM) of the test compounds for 2 hours; • 3. Added IFN-α (100 ng/mL) to stimulate cells for 6 hours; • 4. Removed the upper medium, add PBS (100 μL) and washed, then removed PBS; • 5. Added PLB lysis solution (50 μL) to each well, shook the well for 15 minutes; • 6. Transferred PLB lysis solution (30 μL) to a new 96-well whiteboard, added LAR II reagent (LAR II), then quickly read the 450 nm OD value with a plate washer; • 7. Added Stop & Glo reagent (30 μL), then read the 450 nm OD value using the plate washer. • 8. The final result was the OD value in step 6/OD value in step 7.

A further experiment concerns TYK2/JAK2 pathway. Put plainly: Western blot p-STAT4/STAT4 in IL-12-stimulated mouse spleen cells. Conditions: IL-12 50 ng/mL. It counts as cell-based, mice. On the procedure: The spleen of mice was isolated and ground into single cells with bent tweezers. The single cells of the spleen were centrifuged for 5 minutes (400 g), and erythrocytes were lysed with Ammonium-Chloride-Potassium (ACK) solution and neutralized in 1640 medium, centrifuged for 5 minutes (400 g), and then re-suspended in 1640 medium. The spleen single cell suspension was counted, transferred to and incubated on a 6-well plate (5 million/well). The compounds to be tested were added. After 2 hours, IL-12 (50 ng/mL) was added to stimulate the cells for 1 h. The cells were collected and lysed with protein lysate. The protein was quantitatively tested by BCA kit. Finally, p-STAT4/STAT4 and internal reference protein […] were detected by Western blot.

The subject of another experiment is JAK2/JAK2 pathway. Description: Western blot p-STAT3/STAT3 in TPO-stimulated HEL cells. It counts as cell-based. The note with it: TPO 100 ng/mL. On the procedure:
HEL cells were digested by trypsin, re-suspended in 1640 medium and counted. The compounds to be measured were added to 6 well plates (1 million/per well) for 2 hours, and then thrombopoietin (TPO)(final concentration: 100 ng/mL) was added to stimulate cells for 30 minutes. The cells were collected and lysed with protein lysate. The protein was quantitatively tested by bicinchoninic acid (BCA) kit. Finally, p-STAT3/STAT3 and internal reference protein β-actin were detected by Western blot.

Turning to `COc1c(Nc2cc(NC(=O)C3CC3)ncc2C(N)=O)cccc1-c1cc(P(=O)(C2CC2)C2CC2)n(C)n1` [Compound A2, 6-(cyclopropanecarboxamido)-4-((3-(5-(dicyclopropylphosphoryl)-1-methyl-1H-pyrazol-3-yl)-2-methoxyphenyl)amino)nicotinamide], the “effect on downstream STAT1 phosphorylation induced by IFN-γ (JAK1/JAK2 pathway)” value (shortened to “effect … (JAK1/JAK2 pathway)”) in the experiment with JAK1/JAK2 pathway is on record as “inhibited JAK1/JAK2 pathway in a concentration-dependent manner”. In addition, in experiment [1], the inhibition at 0.05 µM was 26%, the inhibition at 0.2 µM stood at 57% and the inhibition at 1 µM is 94%.

For the compound `COc1c(Nc2cc(Nc3cc(C)ccn3)nnc2C(N)=O)cccc1-c1cc(P(C)(C)=O)n(C2CC2)n1` [Compound A52], in experiment [1], the inhibition at 0.2 µM is 9% and the inhibition at 1 µM worked out at 63%.

`COc1c(-c2cc(P(=O)(C3CC3)C3CC3)n(C)n2)ccnc1Nc1cc(NC(=O)C2CC2)nnc1C(N)=O` [Compound A18, 6-(cyclopropanecarboxamido)-4-((4-(5-(dicyclopropylphosphoryl)-1-methyl-1H-pyrazol-3-yl)-3-methoxypyridin-2-yl)amino)pyridazine-3-carboxamide]: in experiment [1], the inhibition at 0.05 µM was found to be 62%, the inhibition at 0.2 µM came to 79% and the inhibition at 1 µM was 79%.

Take `COc1c(Nc2cc(N3CCCC3)nnc2C(N)=O)cccc1-c1cc(P(=O)(C2CC2)C2CC2)n(C)n1` [Compound A11, 4-((3-(5-(dicyclopropylphosphoryl)-1-methyl-1H-pyrazol-3-yl)-2-methoxyphenyl)amino)-6-(pyrrolidin-1-yl)pyridazine-3-carboxamide]: in experiment [1], the inhibition at 0.05 µM was found to be 6%, the inhibition at 0.2 µM worked out at 86% and the inhibition at 1 µM amounted to 95%.

Turning to `COc1c(Nc2cc(Nc3ccc(F)cn3)nnc2C(N)=O)cccc1-c1cc(P(C)(C)=O)n(C)n1` [Compound A33], in experiment [1], the inhibition at 0.05 µM turned out to be 45%, the inhibition at 0.2 µM was determined as 62% and the inhibition at 1 µM stood at 81%.

For `COc1c(Nc2cc(NC(=O)C3CC3)nnc2C(N)=O)cc(F)cc1-c1cc(P(=O)(C2CC2)C2CC2)n(C)n1` [Compound A8], in the experiment on JAK1/JAK2 pathway, the “effect … (JAK1/JAK2 pathway)” value is “inhibited JAK1/JAK2 pathway in a concentration-dependent manner”. Besides, in experiment [1], the inhibition at 0.05 µM turned out to be 84%, the inhibition at 0.2 µM came out at 88% and the inhibition at 1 µM stood at 96%. In addition, the “inhibition of downstream STAT4 phosphorylation induced by IL-12 (TYK2/JAK2 pathway)” value in the experiment with TYK2/JAK2 pathway is given as “effectively inhibited the downstream STAT4 phosphorylation induced by IL-12”.

For `COc1c(Nc2cc(Nc3ccc(F)cn3)nnc2C(N)=O)cccc1-c1cc(P(=O)(C2CC2)C2CC2)n(C)n1` [Compound A9], the “effect … (JAK1/JAK2 pathway)” value in the experiment on JAK1/JAK2 pathway is “inhibited JAK1/JAK2 pathway in a concentration-dependent manner”. The “inhibition of downstream STAT4 phosphorylation induced by IL-12 (TYK2/JAK2 pathway)” value in the experiment with TYK2/JAK2 pathway is “effectively inhibited the downstream STAT4 phosphorylation induced by IL-12”.

For `COc1c(Nc2nc(NC(=O)C3CC3)ncc2C(N)=O)cccc1-c1cc(P(=O)(C2CC2)C2CC2)n(C)n1` [Compound A19, 2-(cyclopropanecarboxamido)-4-((3-(5-(dicyclopropylphosphoryl)-1-methyl-1H-pyrazol-3-yl)-2-methoxyphenyl)amino)pyrimidine-5-carboxamide], in experiment [1], the inhibition at 0.2 µM was 28% and the inhibition at 1 µM worked out at 71%.

Consider `COc1c(Nc2cc(NC(=O)C3CC3)ncc2C(N)=O)cccc1-c1ccc(P(C)(C)=O)nc1` [Compound A62], for which, in experiment [1], the inhibition at 0.05 µM turned out to be 3%, the inhibition at 0.2 µM worked out at 5% and the inhibition at 1 µM was determined as 56%.

As to `CCP(=O)(CC)c1cc(-c2cccc(Nc3cc(NC(=O)C4CC4)nnc3C(N)=O)c2OC)nn1C` [Compound A6, 6-(cyclopropanecarboxamido)-4-((3-(5-(diethylphosphoryl)-1-methyl-1H-pyrazol-3-yl)-2-methoxyphenyl)amino)pyridazine-3-carboxamide], in experiment [1], the inhibition at 0.05 µM came to 23%, the inhibition at 0.2 µM was found to be 28% and the inhibition at 1 µM is 96%.

Take `CCP(=O)(CC)c1cnc(-c2cccc(Nc3cc(NC(=O)C4CC4)nnc3C(N)=O)c2OC)nc1` [Compound A14]: in experiment [1], the inhibition at 0.2 µM was determined as 23% and the inhibition at 1 µM was determined as 76%.

As for `COc1cccc(Nc2cc(Nc3cccc(-c4cc(P(=O)(C5CC5)C5CC5)n(C)n4)c3OC)c(C(N)=O)nn2)n1` [Compound A67], in experiment [1], the inhibition at 0.05 µM came out at 88%, the inhibition at 0.2 µM stood at 95% and the inhibition at 1 µM stood at 95%.

`N#CC[C@H](C1CCCC1)n1cc(-c2ncnc3[nH]ccc23)cn1` [Ruxolitinib, reference compound]: the “effect … (JAK1/JAK2 pathway)” value with JAK1/JAK2 pathway is “inhibited JAK1/JAK2 pathway in a concentration-dependent manner”. In the experiment with JAK2/JAK2 pathway, the “effect on TPO-induced downstream STAT3 phosphorylation (JAK2/JAK2 pathway)” value was “can inhibit the JAK2/JAK2 pathway”.

Consider `COc1cc(P(=O)(C2CC2)C2CC2)ccc1Nc1cc(NC(=O)C2CC2)nnc1C(N)=O` [Compound B5], for which the inhibition at 1 µM in experiment [1] came to 0%.

For the compound `COc1c(Nc2cc(NC(=O)C3C[C@H]3F)nnc2C(N)=O)cccc1-c1cc(P(=O)(C2CC2)C2CC2)n(C)n1` (some centres unmarked) [Compound A47], in experiment [1], the inhibition at 0.05 µM is 8%, the inhibition at 0.2 µM turned out to be 19% and the inhibition at 1 µM worked out at 62%.

As to `COc1c(-c2cc(P(C)(C)=O)n(C3CC3)n2)ccnc1Nc1cc(Nc2cc(C)ccn2)nnc1C(N)=O` [Compound A60], in experiment [1], the inhibition at 1 µM is 66%.

Turning to `[2H]C([2H])([2H])n1nc(-c2cccc(Nc3cc(NC(=O)C4CC4)nnc3C(N)=O)c2OC)cc1P(=O)(C1CC1)C1CC1` [Compound A24, 6-(cyclopropanecarboxamido)-4-((3-(5-(dicyclopropylphosphoryl)-1-(methyl-d3)-1H-pyrazol-3-yl)-2-methoxyphenyl)amino)pyridazine-3-carboxamide], in experiment [1], the inhibition at 0.05 µM turned out to be 39%, the inhibition at 0.2 µM turned out to be 90% and the inhibition at 1 µM is 95%.

As to `COc1c(Nc2cc(NC(=O)C3CC3)ncc2C(N)=O)cccc1-c1ccc(P(C)(C)=O)cc1` [Compound A61, 6-(cyclopropanecarboxamido)-4-((4′-(dimethylphosphoryl)-2-methoxy-[1,1′-biphenyl]-3-yl)amino)nicotinamide], in experiment [1], the inhibition at 0.05 µM was 8%, the inhibition at 0.2 µM is 23% and the inhibition at 1 µM came out at 59%.

`COc1cc(P(=O)(C2CC2)C2CC2)ccc1Nc1cc(Nc2ccccn2)nnc1C(N)=O` [Compound B4]: in experiment [1], the inhibition at 1 µM is 8%.

In the case of `COc1cccnc1Nc1cc(Nc2cccc(-c3cc(P(=O)(C4CC4)C4CC4)n(C)n3)c2OC)c(C(N)=O)nn1` [Compound A65], in experiment [1], the inhibition at 0.05 µM was 36%, the inhibition at 0.2 µM worked out at 43% and the inhibition at 1 µM was 93%.

On to `COc1c(Nc2cc(Nc3ccncn3)nnc2C(N)=O)cccc1-c1cc(P(=O)(C2CC2)C2CC2)n(C)n1` [Compound A40], for which, in experiment [1], the inhibition at 0.05 µM worked out at 61%, the inhibition at 0.2 µM stood at 80% and the inhibition at 1 µM was 96%.

`CNC(=O)Nc1cc(Nc2cccc(-c3cc(P(=O)(C4CC4)C4CC4)n(C)n3)c2OC)c(C(N)=O)nn1` [Compound A21]: in experiment [1], the inhibition at 0.05 µM was 16%, the inhibition at 0.2 µM was found to be 39% and the inhibition at 1 µM was determined as 74%.

Take `COc1ccnc(Nc2cc(Nc3cccc(-c4cc(P(=O)(C5CC5)C5CC5)n(C)n4)c3OC)c(C(N)=O)nn2)c1` [Compound A66]: in experiment [1], the inhibition at 0.05 µM turned out to be 59%, the inhibition at 0.2 µM amounted to 82% and the inhibition at 1 µM amounted to 96%.

Regarding `COc1c(Nc2cc(Nc3ccc(C#N)cn3)nnc2C(N)=O)cccc1-c1cc(P(C)(C)=O)n(C)n1` [Compound A31], in experiment [1], the inhibition at 0.05 µM is 9%, the inhibition at 0.2 µM is 54% and the inhibition at 1 µM amounted to 75%.

Regarding `[2H]C([2H])([2H])n1nc(-c2cccc(Nc3cc(Nc4cnccn4)nnc3C(N)=O)c2OC)cc1P(=O)(C1CC1)C1CC1` [Compound A59], in experiment [1], the inhibition at 1 µM came out at 86%.
